Results taken from US20180064710A1, “ANTIFUNGAL TREATMENT OF PSORIASIS” (Gerbe Labs Inc., priority 2016, published 2018).
Read-outs that look alike come from different tables or passages of the source.

Columns and labels:
Assay type in all cases: cell-based
[1] = test system: Aspergillus fumigatus + Candida albicans co-culture; assay: Broth microdilution MIC assay, co-culture of spores 1:1
Procedure: Broth Microdilution Minimal Inhibitory Concentration (MIC) assays were performed to obtain the MIC values for Itraconazole and Ketoconazole with an antibiotic (Vancomycin or Tobramycin or Amikacin) against the two fungal strains.
The strains were maintained as a frozen glycerol stocks at −80° C. The fungal strains were prepared by thawing a glycerol stock, streaking and growing onto Sabouraud's Dextrose Agar (SDA) plates, overnight at 35±2° C. in aerobic conditions and used for the assay.
The completely synthetic medium RPMI-1640 (with glutamine, without bicarbonate, and with phenol red as a pH indicator) was buffered with 0.165 mol/L MOPS (3-[N-morpholino] propanesulfonic acid) buffer was used as the growth medium for the fungal strains. Overnight cultures of the fungal strains were grown on Difco™ Sabouraud's Dextrose Agar (SDA) plates at 35° C. To induce conidium and sporangiospore formation, the culture plates were transferred to incubator and grown for 5-7 days 30° C. or until good sporulation was obtained. Approximately, 10 mL of 0.85% saline containing 0.01% of Tween 80 was used to poured on to the agar plate containing conidia or sporangiospores and hyphal fragments. The suspension containing conidia or sporangiospores and hyphal fragments was aspirated and transferred to a sterile tube. This mixture was filtered to separate the spores from the vegetative cells of the fungi. The supernatant containing only fungal spores was used for all the assays. Fungal spore inoculum was prepared in RPMI-1640 (with glutamine, without bicarbonate, and with phenol red as a pH indicator) was buffered with 0.165 mol/L MOPS (3-[N-morpholino] propanesulfonic acid) buffer to a final density of 10^6 CFU/mL using a hemocytometer.
Each MIC assay included 11 2-fold serial dilutions of the antifungal agents. Test concentrations for the test articles were tested at the following concentrations: 64 μg/mL, 32 μg/mL, 16 μg/mL, 8 μg/mL, 4 μg/mL, 2 μg/mL, 1 μg/mL, 0.5 μg/mL, 0.25 μg/mL, 0.125 μg/mL, and 0.0625 μg/mL. Broth microdilution assays were performed according to the procedures detailed in CLSI document M38-A2 (CLSI, 2008). Briefly, 2× stock solutions of test articles were prepared at 128 μg/mL. A two-fold serial dilution of the stock solution were performed. Diluted stock solutions of the fungal spores were adjusted (to be equivalent to 10^6 CFU/mL). 1× final concentration of the antifungals was obtained when they were combined with the fungal spore broth in the microtiter plate. Plates were incubated for 3-5 days at 35±2° C. in an ambient air incubator. MIC values recorded are the minimum concentration of the test articles that inhibits growth as observed by unaided eye. The MIC values was expressed in μg/mL. The assay was carried out in duplicates.

Candida albicans = assay: Culture sensitivity, Patient 7 fungal isolate; conditions: Patient 7 culture
Description: (§1) The patient underwent the standard workup for CRS, sleep disorder, and nasal obstruction, plus our diagnostic skin test and sinus CT scan.

[2] = test system: S. aureus, a gram negative bacteria; assay: Culture sensitivity, Patient 7 bacterial isolate; conditions: Patient 7 culture
Description: as §1

[3] = A. fumigatus + C. albicans co-culture, repeated MIC study (Table 4), agent alone, read-out: MIC

SMILES | MIC ([1]; A. fumigatus + C. albicans co-culture 1:1, first study (Table 3), read-out: MIC) | MIC ([1]; A. fumigatus + C. albicans co-culture, repeated MIC study (Table 4), agent alone, listed as Itraconazone) | MIC [1, 3] | Sensitivity of cultured Candida albicans (Candida albicans) | Sensitivity of cultured bacteria [2]
CCC(C)n1ncn(-c2ccc(N3CCN(c4ccc(OCC5COC(Cn6cncn6)(c6ccc(Cl)cc6Cl)O5)cc4)CC3)cc2)c1=O (stereo not drawn) [Itraconazole] | 0.5 µg/mL | 1 µg/mL | 1 µg/mL |  | 
CC(=O)N1CCN(c2ccc(OCC3COC(Cn4ccnc4)(c4ccc(Cl)cc4Cl)O3)cc2)CC1 (stereo not drawn) [Ketoconazole] |  |  | 8 µg/mL | sensitive | 
NC[C@H]1O[C@H](O[C@H]2[C@H](O)[C@@H](O[C@H]3O[C@H](CO)[C@@H](O)[C@H](N)[C@H]3O)[C@H](N)C[C@@H]2N)[C@H](N)C[C@@H]1O [tobramycin] |  |  |  |  | sensitive
